Laboratory results: US20060069132A1, “Azolecarboxamide herbicides” (priority 2004, published 2006)

What was measured:
woolly cupgrass = test: Test C pre-/postemergence herbicide test; type: in vivo, Eriochloa villosa
Outline: (§1)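 Visual ratings on a 0–100 scale (100 = complete control) made versus untreated controls after 12 to 14 greenhouse days. Test chemicals, formulated in surfactant-containing non-phytotoxic solvent, applied preemergence to planted seeds or postemergence to 1- to 4-leaf plants (2 to 18 cm).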

ducksalad = test: Test C flooded paddy test; type: in vivo, Heteranthera limosa; conditions: for Plant response rating, Ducksalad: 500 g ai/ha, visual rating after 12 to 14 days
giant foxtail = test: Test C pre-/postemergence herbicide test; type: in vivo, Setaria faberi
Outline: as §1

bermudagrass = test: Test C pre-/postemergence herbicide test; type: in vivo, Cynodon dactylon
Outline: as §1

pigweed = test: Test C pre-/postemergence herbicide test; type: in vivo, Amaranthus retroflexus
Outline: as §1

goosegrass = test: Test C pre-/postemergence herbicide test; type: in vivo, Eleusine indica
Outline: as §1

large crabgrass = test: Test C pre-/postemergence herbicide test; type: in vivo, Digitaria sanguinalis
Outline: as §1

[1] = 62 g ai/ha, preemergence, scale 0 to 100
[2] = 250 g ai/ha, scale 0-100, preemergence
[3] = 500 g ai/ha, scale 0 to 100 (0 no effect, 100 complete control), visual, 12 to 14 days, preemergence
[4] = 125 g ai/ha, scale 0 to 100 (0 no effect, 100 complete control)
[5] = 250 g ai/ha, scale of 0 to 100, 0 is no effect, 100 is complete control
[6] = scale 0 to 100 (0 no effect, 100 complete control)
[7] = 62 g ai/ha, preemergence, scale 0 to 100, 0 no effect, 100 complete control
[8] = 125 g ai/ha, scale 0 (no effect) to 100 (complete control), visual, 12 to 14 days, preemergence
[9] = Postemergence, 500 g ai/ha, scale 0 to 100
[10] = Postemergence, 250 g ai/ha, scale 0 to 100, 0 no effect, 100 complete control
[11] = postemergence, 125 g ai/ha, scale 0 to 100
[12] = postemergence, 62 g ai/ha, scale 0 to 100

## CCc1nn(C(C)(C)C)nc1C(=S)Nc1cccc(C(=S)N(C)C)c1 [Compound 396]
Woolly cupgrass; [1]
  Plant response rating, Cupgrass, Woolly: 60
Woolly cupgrass; 125 g ai/ha, preemergence
  Plant response rating (0 = no effect, 100 = complete control), Cupgrass, Woolly: 90
Woolly cupgrass; [2]
  Plant response rating, Cupgrass, Woolly: 100
Woolly cupgrass; [3]
  Plant response rating, Cupgrass, Woolly: 100
ducksalad; 62 g ai/ha, scale 0 to 100
  Ducksalad plant response rating: 0
ducksalad; [4]
  Ducksalad plant response rating: 0
ducksalad; [5]
  Ducksalad plant response rating: 65
ducksalad; [6]
  Plant response rating, Ducksalad: 75
Giant foxtail; [1]
  Plant response rating, Foxtail, Giant: 95
Giant foxtail; 125 g ai/ha, preemergence
  Plant response rating (0 = no effect, 100 = complete control), Foxtail, Giant: 100
Giant foxtail; [2]
  Plant response rating, Foxtail, Giant: 100
Giant foxtail; [3]
  Plant response rating, Foxtail, Giant: 100
bermudagrass; [7]
  Plant response rating, Bermudagrass: 95
bermudagrass; 125 g ai/ha, preemergence
  Plant response rating (0 = no effect, 100 = complete control), Bermudagrass: 100
bermudagrass; [2]
  Plant response rating, Bermudagrass: 100
bermudagrass; [3]
  Plant response rating, Bermudagrass: 100
pigweed; [1]
  Plant response rating, Pigweed: 100
pigweed; 125 g ai/ha, preemergence
  Plant response rating (0 = no effect, 100 = complete control), Pigweed: 100
pigweed; [2]
  Plant response rating, Pigweed: 100
pigweed; [3]
  Plant response rating, Pigweed: 100
goosegrass; [1]
  Plant response rating, Goosegrass: 95
goosegrass; 125 g ai/ha, preemergence
  Plant response rating (0 = no effect, 100 = complete control), Goosegrass: 100
goosegrass; [2]
  Plant response rating, Goosegrass: 100
goosegrass; [3]
  Plant response rating, Goosegrass: 100
Large crabgrass; [1]
  Plant response rating, Crabgrass, Large: 100
Large crabgrass; 125 g ai/ha, preemergence
  Plant response rating (0 = no effect, 100 = complete control), Crabgrass, Large: 100
Large crabgrass; [2]
  Plant response rating, Crabgrass, Large: 100
Large crabgrass; [3]
  Plant response rating, Crabgrass, Large: 100

## CCc1nn(C(C)(C)C)nc1C(=O)Nc1cccc(C(=S)N(C)C)c1 [Compound 395]
Woolly cupgrass; [1]
  Plant response rating, Cupgrass, Woolly: 85
Woolly cupgrass; 125 g ai/ha, preemergence
  Plant response rating (0 = no effect, 100 = complete control), Cupgrass, Woolly: 95
Woolly cupgrass; [2]
  Plant response rating, Cupgrass, Woolly: 100
Woolly cupgrass; [3]
  Plant response rating, Cupgrass, Woolly: 100
ducksalad; 62 g ai/ha, scale 0 to 100
  Ducksalad plant response rating: 15
ducksalad; [4]
  Ducksalad plant response rating: 20
ducksalad; [5]
  Ducksalad plant response rating: 55
ducksalad; [6]
  Plant response rating, Ducksalad: 55
Giant foxtail; [1]
  Plant response rating, Foxtail, Giant: 95
Giant foxtail; 125 g ai/ha, preemergence
  Plant response rating (0 = no effect, 100 = complete control), Foxtail, Giant: 100
Giant foxtail; [2]
  Plant response rating, Foxtail, Giant: 100
Giant foxtail; [3]
  Plant response rating, Foxtail, Giant: 100
bermudagrass; [7]
  Plant response rating, Bermudagrass: 95
bermudagrass; 125 g ai/ha, preemergence
  Plant response rating (0 = no effect, 100 = complete control), Bermudagrass: 100
bermudagrass; [2]
  Plant response rating, Bermudagrass: 100
bermudagrass; [3]
  Plant response rating, Bermudagrass: 100
pigweed; [1]
  Plant response rating, Pigweed: 100
pigweed; 125 g ai/ha, preemergence
  Plant response rating (0 = no effect, 100 = complete control), Pigweed: 100
pigweed; [2]
  Plant response rating, Pigweed: 100
pigweed; [3]
  Plant response rating, Pigweed: 100
goosegrass; [1]
  Plant response rating, Goosegrass: 95
goosegrass; 125 g ai/ha, preemergence
  Plant response rating (0 = no effect, 100 = complete control), Goosegrass: 95
goosegrass; [2]
  Plant response rating, Goosegrass: 100
goosegrass; [3]
  Plant response rating, Goosegrass: 100
Large crabgrass; [1]
  Plant response rating, Crabgrass, Large: 100
Large crabgrass; 125 g ai/ha, preemergence
  Plant response rating (0 = no effect, 100 = complete control), Crabgrass, Large: 100
Large crabgrass; [2]
  Plant response rating, Crabgrass, Large: 100
Large crabgrass; [3]
  Plant response rating, Crabgrass, Large: 100

## CCn1nc(C(C)(C)C)cc1C(=O)Nc1cc(C(=S)N(C)C)ccn1 [Compound 334]
Woolly cupgrass; [1]
  Plant response rating, Cupgrass, Woolly: 25
Woolly cupgrass; [8]
  Plant response rating, Cupgrass, Woolly: 60
Woolly cupgrass; [2]
  Plant response rating, Cupgrass, Woolly: 85
ducksalad; 62 g ai/ha, scale 0 to 100
  Ducksalad plant response rating: 75
ducksalad; [4]
  Ducksalad plant response rating: 85
ducksalad; [5]
  Ducksalad plant response rating: 85
ducksalad; [6]
  Plant response rating, Ducksalad: 90
Giant foxtail; [1]
  Plant response rating, Foxtail, Giant: 60
Giant foxtail; [8]
  Plant response rating, Foxtail, Giant: 80
Giant foxtail; [2]
  Plant response rating, Foxtail, Giant: 100
bermudagrass; 31 g ai/ha, scale 0 to 100, 0 no effect, 100 complete control, last section of Table C (species set of preemergence test)
  Plant response rating, Bermudagrass: 100
bermudagrass; [7]
  Plant response rating, Bermudagrass: 100
bermudagrass; [8]
  Plant response rating, Bermudagrass: 100
bermudagrass; [2]
  Plant response rating, Bermudagrass: 100
pigweed; [1]
  Plant response rating, Pigweed: 100
pigweed; [8]
  Plant response rating, Pigweed: 100
pigweed; [2]
  Plant response rating, Pigweed: 100
goosegrass; [1]
  Plant response rating, Goosegrass: 100
goosegrass; [8]
  Plant response rating, Goosegrass: 100
goosegrass; [2]
  Plant response rating, Goosegrass: 100
Large crabgrass; [1]
  Plant response rating, Crabgrass, Large: 85
Large crabgrass; [8]
  Plant response rating, Crabgrass, Large: 100
Large crabgrass; [2]
  Plant response rating, Crabgrass, Large: 100

## CCn1nc(C(C)(C)C)cc1C(=O)Nc1cccc(OC(F)F)c1 [Compound 332]
Woolly cupgrass; [1]
  Plant response rating, Cupgrass, Woolly: 0
Woolly cupgrass; [8]
  Plant response rating, Cupgrass, Woolly: 0
Woolly cupgrass; [2]
  Plant response rating, Cupgrass, Woolly: 5
Woolly cupgrass; [3]
  Plant response rating, Cupgrass, Woolly: 10
Woolly cupgrass; [9]
  Cupgrass, Woolly plant response rating: 10
Woolly cupgrass; [10]
  Plant response rating, Cupgrass, Woolly: 10
Woolly cupgrass; [11]
  Plant response rating, Cupgrass, Woolly: 5
Woolly cupgrass; [12]
  Plant response rating, Cupgrass, Woolly: 5
ducksalad; 62 g ai/ha, scale 0 to 100
  Ducksalad plant response rating: 20
ducksalad; [4]
  Ducksalad plant response rating: 90
ducksalad; [5]
  Ducksalad plant response rating: 95
ducksalad; [6]
  Plant response rating, Ducksalad: 95
Giant foxtail; [1]
  Plant response rating, Foxtail, Giant: 0
Giant foxtail; [8]
  Plant response rating, Foxtail, Giant: 20
Giant foxtail; [2]
  Plant response rating, Foxtail, Giant: 60
Giant foxtail; [3]
  Plant response rating, Foxtail, Giant: 80
Giant foxtail; [9]
  Foxtail, Giant plant response rating: 20
Giant foxtail; [10]
  Plant response rating, Foxtail, Giant: 15
Giant foxtail; [11]
  Plant response rating, Foxtail, Giant: 10
Giant foxtail; [12]
  Plant response rating, Foxtail, Giant: 10
bermudagrass; [7]
  Plant response rating, Bermudagrass: 80
bermudagrass; [8]
  Plant response rating, Bermudagrass: 100
bermudagrass; [2]
  Plant response rating, Bermudagrass: 100
bermudagrass; [9]
  Bermudagrass plant response rating: 70
bermudagrass; [10]
  Plant response rating, Bermudagrass: 50
bermudagrass; Preemergence, 500 g ai/ha, scale 0 to 100, 0 no effect, 100 complete control
  Bermudagrass plant response rating: 100
bermudagrass; [11]
  Plant response rating, Bermudagrass: 10
bermudagrass; [12]
  Plant response rating, Bermudagrass: 5
pigweed; [1]
  Plant response rating, Pigweed: 100
pigweed; [8]
  Plant response rating, Pigweed: 100
pigweed; [2]
  Plant response rating, Pigweed: 100
pigweed; [3]
  Plant response rating, Pigweed: 100
pigweed; [9]
  Pigweed plant response rating: 95
pigweed; [10]
  Plant response rating, Pigweed: 95
pigweed; [11]
  Plant response rating, Pigweed: 90
pigweed; [12]
  Plant response rating, Pigweed: 85
goosegrass; [1]
  Plant response rating, Goosegrass: 80
goosegrass; [8]
  Plant response rating, Goosegrass: 85
goosegrass; [2]
  Plant response rating, Goosegrass: 100
goosegrass; [3]
  Plant response rating, Goosegrass: 100
goosegrass; [9]
  Goosegrass plant response rating: 60
goosegrass; [10]
  Plant response rating, Goosegrass: 15
goosegrass; [11]
  Plant response rating, Goosegrass: 15
goosegrass; [12]
  Plant response rating, Goosegrass: 10
Large crabgrass; [1]
  Plant response rating, Crabgrass, Large: 75
Large crabgrass; [8]
  Plant response rating, Crabgrass, Large: 100
Large crabgrass; [2]
  Plant response rating, Crabgrass, Large: 100
Large crabgrass; [3]
  Plant response rating, Crabgrass, Large: 100
Large crabgrass; [9]
  Crabgrass, Large plant response rating: 70
Large crabgrass; [10]
  Plant response rating, Crabgrass, Large: 50
Large crabgrass; [12]
  Plant response rating, Crabgrass, Large: 30
